“And” between values parts separate entries of the source, which are not always exact repeats. Identical values can stand only once.
Columns and labels:
Details in all cases: incubation time: 72 h
Hs578T = experiment: normalised viability (% of control), CellTiter-Blue; higher = more viable cells (about 100 = DMSO control)
Summary of the method: (§1)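 Vehicle (100) and a positive kill control (0) anchored the normalisation of each plate, and Z'-factor was used for quality control. Breast cancer cell lines in 20 µl suspension were incubated 72 h over compound in 5 µl medium in 384-well plates, followed by CellTiter-Blue at 560/590 nm. The value is normalised viability at a single listed concentration of the series.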

HCC1937 [1] = experiment: as above
Summary of the method: as §1

MDA-MB-231 [2] = experiment: as above
Summary of the method: as §1

DU-4475 = experiment: as above
Summary of the method: as §1

HCC1599 = experiment: as above
Summary of the method: as §1

HDQ-P1 [3] = experiment: as above
Summary of the method: as §1

MDA-MB-453 = experiment: as above
Summary of the method: as §1

CAL-85-1 = experiment: as above
Summary of the method: as §1

CAL-120 = experiment: as above
Summary of the method: as §1

BT-549 = experiment: as above
Summary of the method: as §1

MFM-223 = experiment: as above
Summary of the method: as §1

CAL-148 = experiment: as above
Summary of the method: as §1

MDA-MB-436 = experiment: as above
Summary of the method: as §1

HCC1143 [4] = experiment: as above
Summary of the method: as §1

SK-BR-3 = experiment: as above
Summary of the method: as §1

MDA-MB-468 = experiment: as above
Summary of the method: as §1

BT-474 [5] = experiment: as above
Summary of the method: as §1

CAL-51 = experiment: as above
Summary of the method: as §1

HCC1937 [6] = experiment: drug sensitivity score (DSS), CellTiter-Glo (DSS (AUC-based score)); higher = stronger drug effect (viability inhibition or cytotoxicity); extreme values may be limits of the assay
Summary of the method: (§2)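 Breast cancer cell lines (20 µl suspension) were seeded into 384-well plates holding compound at 5 concentrations in 10-fold steps over a compound-specific 10,000-fold range, then incubated 72 h. CellTox Green fluorescence (485/520 nm) was read first, then CellTiter-Glo luminescence after 10 min at room temperature. Each plate was normalised to 0.1 % DMSO and a positive kill control. The drug sensitivity score was calculated from the area under the fitted dose-response curve.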

MDA-MB-231 [7] = experiment: as above
Summary of the method: as §2

HDQ-P1 [8] = experiment: as above
Summary of the method: as §2

HCC1143 [9] = experiment: as above
Summary of the method: as §2

BT-474 [10] = experiment: as above
Summary of the method: as §2

MCF-10A = experiment: as above
Summary of the method: as §2

CO[C@H](C(=O)[C@@H](O)[C@@H](C)O)[C@@H]1Cc2cc3cc(O[C@H]4C[C@@H](O[C@@H]5C[C@@H](O)[C@H](O)[C@@H](C)O5)[C@H](O)[C@@H](C)O4)c(C)c(O)c3c(O)c2C(=O)[C@H]1O[C@H]1C[C@@H](O[C@@H]2C[C@@H](O)[C@@H](O[C@@H]3C[C@](C)(O)[C@H](O)[C@@H](C)O3)[C@@H](C)O2)[C@H](O)[C@@H](C)O1 [Plicamycin]
Details	normalised viability
BT-474 [5], 10 nM	122% and 103%
BT-474 [5], 1000 nM	36% and 23.9%
BT-474 [5], 10000 nM	22.1% and 26.4%
BT-549, 10 nM	94.7% and 83.2%
BT-549, 1000 nM	6.74% and 5.38%
BT-549, 10000 nM	6.68% and 5.22%
CAL-51, 3 nM	99.7% and 119%
CAL-51, 30 nM	96.1% and 112%
CAL-51, 100 nM	62.3% and 61.2%
CAL-85-1, 3 nM	87.3% and 88.3%
CAL-85-1, 30 nM	89.2% and 83.9%
CAL-85-1, 100 nM	51.5% and 39.5%
CAL-120, 10 nM	89.5% and 75.6%
CAL-120, 1000 nM	13.4% and 10.2%
CAL-120, 10000 nM	11.9% and 9.12%
CAL-148, 3 nM	87.7%
CAL-148, 30 nM	95.3% and 99.5%
CAL-148, 100 nM	26% and 38.8%
DU-4475, 3 nM	85.1% and 89.9%
DU-4475, 30 nM	88.7% and 83.8%
DU-4475, 100 nM	1.46% and 0.7%
HCC1143 [4], 10 nM	84.9% and 62.2%
HCC1143 [4], 1000 nM	22% and 14.7%
HCC1143 [4], 10000 nM	16.7% and 14.6%
HCC1599, 10 nM	89.6% and 108%
HCC1599, 1000 nM	22.3% and 22.2%
HCC1599, 10000 nM	15.2% and 19.4%
HCC1937 [1], 10 nM	85.8% and 78.5%
HCC1937 [1], 1000 nM	22.1% and 19.5%
HCC1937 [1], 10000 nM	29.1% and 20.6%
HDQ-P1 [3], 30 nM	104% and 80.5%
HDQ-P1 [3], 100 nM	68.5% and 44.6%
Hs578T, 10 nM	100% and 82.1%
Hs578T, 1000 nM	3.62% and 2.96%
Hs578T, 10000 nM	2.27% and 1.73%
MDA-MB-231 [2], 10 nM	82.1% and 88.4%
MDA-MB-231 [2], 1000 nM	9.81% and 8.56%
MDA-MB-231 [2], 10000 nM	8.03% and 7.03%
MDA-MB-436, 10 nM	95.2% and 75.5%
MDA-MB-436, 1000 nM	25.8% and 19.9%
MDA-MB-436, 10000 nM	21.7% and 13.9%
MDA-MB-453, 3 nM	109% and 113%
MDA-MB-453, 30 nM	99.8% and 92.6%
MDA-MB-453, 100 nM	48.3% and 34.6%
MDA-MB-468, 10 nM	91.4% and 92.1%
MDA-MB-468, 1000 nM	3.16% and 3.32%
MDA-MB-468, 10000 nM	2.7% and 3.47%
MFM-223, 10 nM	103% and 87.9%
MFM-223, 1000 nM	20.3% and 16.5%
MFM-223, 10000 nM	9.96% and 7.4%
SK-BR-3, 10 nM	111% and 88.8%
SK-BR-3, 1000 nM	6.61% and 5.62%
SK-BR-3, 10000 nM	4.44% and 5.25%

Details	drug sensitivity score
BT-474 [10]	6.47
HCC1143 [9]	4.54
HCC1937 [6]	4.37
HDQ-P1 [8]	2.83
MCF-10A	4.28
MDA-MB-231 [7]	5.67

C[C@]12C=CC(=O)C=C1CC[C@@H]1[C@@H]2C(=O)C[C@@]2(C)[C@H]1CC[C@]2(O)C(=O)CO [Prednisone]
normalised viability [%]
Details	3 nM	10 nM	30 nM	100 nM	1000 nM	10000 nM
BT-474 [5]	–	133	–	–	109	111
BT-549	–	96.7	–	–	107	108
CAL-51	104	–	98.3	103	–	–
CAL-85-1	95.8	–	102	90.9	–	–
CAL-120	–	79.9	–	–	79.3	96.3
CAL-148	94.8	–	97.4	104	–	–
DU-4475	90.2	–	94.9	88.4	–	–
HCC1143 [4]	–	91	–	–	89.1	86.8
HCC1599	–	102	–	–	103	94
HCC1937 [1]	–	95.7	–	–	105	98.9
HDQ-P1 [3]	98.3	–	110	114	–	–
Hs578T	–	121	–	–	108	105
MDA-MB-231 [2]	–	97	–	–	101	108
MDA-MB-436	–	91.3	–	–	70.5	109
MDA-MB-453	106	–	115	113	–	–
MDA-MB-468	–	98.6	–	–	104	98
MFM-223	–	91.7	–	–	89.7	94.8
SK-BR-3	–	101	–	–	111	113

Details	drug sensitivity score
BT-474 [10]	0
HCC1143 [9]	0
HCC1937 [6]	0
HDQ-P1 [8]	0
MCF-10A	0
MDA-MB-231 [7]	0
